Patent publication US12343347B2 (Biohaven Pharmaceutical Holding Company Ltd., priority 2012, dated 2025)

Columns and labels:
Type in all cases: in vitro ADME
[1] = Stability in Simulated Gastric Fluid (SGF); details: SGF:acetonitrile 9:1, 0.01 mg/mL, 37° C.
Method: (§1) Stability in Simulated Gastric Fluid (SGF) and Simulated Intestinal Fluid (SIF). Procedure from Baudy et. al. (J. Med. Chem. 2009, 52, 771-778) used. The physiological stability of pro-drugs was determined by examining the stability of the compound in SGF, and SIF at 37° C. The compounds were prepared in a 9:1 mixture of the appropriate test component (SGF, SIF) and acetonitrile to a final concentration of 0.01 mg/mL. The samples were thoroughly mixed and maintained at 37° C. Each sample was injected consecutively onto an Agilent 1100 system (Luna C18, 3 μm, 50 mm×3 mm; 1 mL/min; mobile phase of 0.1% trifluoroacetic acid in water/0.1% trifluoroacetic acid in acetonitrile) after a 3 h period. The percent remaining of pro-drug was calculated by comparing the area of pro-drug compound versus riluzole generated. The identities of the parent compounds and conversion products were confirmed by LC/MS.

[2] = Plasma stability in fresh human plasma; details: 1 uM, 37° C.
Method: (§2) Plasma Stability: Assessment of plasma stability was carried out by individual incubations of drug candidates in fresh mouse or human control plasma at a concentration of 1 uM for 1 hour at 37° C. After which, the samples were de-proteinized by addition of 2 volumes of acetonitrile containing 0.1% formic acid and internal standard, vortex mixed for 2 minutes and centrifuged at 4000 rpm for 10 minutes to pellet precipitated protein. The resulting supernatant containing the drug candidates was diluted 5-fold with water containing 0.1% formic acid and submitted to LC-MS/MS analysis. All determinations were done in triplicate. […]
(§3) LC-MS/MS Analysis: An aliquot from each incubation was analyzed by LC-MS/MS with SRM detection in the positive ionization mode using an ABSciex API 5500 QTrap Mass Spectrometer interfaced via the ABSciex Turbo V IonSpray source (ESI) to an Eksigent ExpressHT LC system. […] A fast gradient, from 15 to 85% organic in 2.5 minutes, with run time of 5.0 minutes, and flow rate of 50 uL/min was utilized. Peak areas were integrated using MultiQuant v2.0 software from ABSciex.

[3] = Stability in Simulated Intestinal Fluid (SIF); details: SIF:acetonitrile 9:1, 0.01 mg/mL, 37° C.
Method: as §1

[4] = Metabolic stability in pooled mouse liver microsomes; details: mouse liver microsomes 0.5 mg/mL, 1 uM, NADPH, 37° C.
Method: (§4) Metabolic Stability: In vitro metabolic stability was determined in pooled mouse or human liver microsomes (BD Gentest) at a protein concentration of 0.5 mg/mL in reaction buffer (100 mM KH2PO4, pH 7.4 and 12 mM MgCl2). Each drug candidate was added to a final concentration of 1 uM. This mixture was pre-warmed to 37° C. for 10 minutes prior to starting the reaction with the addition of β-Nicotinamide adenine dinucleotide 2′-phosphate reduced (NADPH) to a final concentration of 1 mM. A parallel incubation lacking NADPH served as the control. After incubation for 30 min at 37° C., the reactions were quenched by the addition of acetonitrile containing 0.1% formic acid and internal standard, vortex mixed for 2 minutes and centrifuged at 4000 rpm for 10 minutes to pellet the precipitated protein. The resulting supernatant containing the drug candidate and its potential metabolites was diluted 5-fold with water containing 0.1% formic acid and submitted to LC-MS/MS analysis. […]
as §3

[5] = Metabolic stability in pooled human liver microsomes; details: human liver microsomes 0.5 mg/mL, 1 uM, NADPH, 37° C.
Method: as §4, §3

[6] = Plasma stability in fresh mouse plasma; details: 1 uM, 37° C.
Method: as §2, §3

NCCCCC(=O)Nc1nc2ccc(OC(F)(F)F)cc2s1 [Cpd 26, 5-Amino-pentanoic acid (6-trifluoromethoxy-benzothiazol-2-yl)-amide]
SGF (3 hours), percent of pro-drug metabolized to riluzole [1]: 0%
Plasma Stability Human (1 hour), percent of pro-drug metabolized to riluzole [2]: 5%
SIF (3 hours), percent of pro-drug metabolized to riluzole [3]: 0%
Metabolic Stability mouse (30 minutes), percent of pro-drug metabolized to riluzole [4]: 66%
Metabolic Stability human (30 minutes), percent of pro-drug metabolized to riluzole [5]: 19%
Plasma Stability mouse (1 hour), percent of pro-drug metabolized to riluzole [6]: 0%

Nc1ccc(C(=O)Nc2nc3ccc(OC(F)(F)F)cc3s2)cc1 [Cpd 28, 4-Amino-N-(6-trifluoromethoxy-benzothiazol-2-yl)-benzamide]
SGF (3 hours), percent of pro-drug metabolized to riluzole [1]: 0%
Plasma Stability Human (1 hour), percent of pro-drug metabolized to riluzole [2]: 0%
SIF (3 hours), percent of pro-drug metabolized to riluzole [3]: 0%
Metabolic Stability mouse (30 minutes), percent of pro-drug metabolized to riluzole [4]: 24%
Metabolic Stability human (30 minutes), percent of pro-drug metabolized to riluzole [5]: 80%
Plasma Stability mouse (1 hour), percent of pro-drug metabolized to riluzole [6]: 0%

CN(C)CCCOC(=O)Nc1nc2ccc(OC(F)(F)F)cc2s1 [Cpd 19, (6-Trifluoromethoxy-benzothiazol-2-yl)-carbamic acid 3-dimethylamino-propyl ester]
SGF (3 hours), percent of pro-drug metabolized to riluzole [1]: 0%
Plasma Stability Human (1 hour), percent of pro-drug metabolized to riluzole [2]: 0%
SIF (3 hours), percent of pro-drug metabolized to riluzole [3]: 0%
Metabolic Stability mouse (30 minutes), percent of pro-drug metabolized to riluzole [4]: 71%
Metabolic Stability human (30 minutes), percent of pro-drug metabolized to riluzole [5]: 0%
Plasma Stability mouse (1 hour), percent of pro-drug metabolized to riluzole [6]: 0%

CCOC(=O)Nc1nc2ccc(OC(F)(F)F)cc2s1 [Cpd 13, (6-Trifluoromethoxy-benzothiazol-2-yl)-carbamic acid ethyl ester]
SGF (3 hours), percent of pro-drug metabolized to riluzole [1]: 0%
Plasma Stability Human (1 hour), percent of pro-drug metabolized to riluzole [2]: 0%
SIF (3 hours), percent of pro-drug metabolized to riluzole [3]: 0%
Metabolic Stability mouse (30 minutes), percent of pro-drug metabolized to riluzole [4]: 8%
Metabolic Stability human (30 minutes), percent of pro-drug metabolized to riluzole [5]: 7%
Plasma Stability mouse (1 hour), percent of pro-drug metabolized to riluzole [6]: 0%

N[C@@H](Cc1ccccc1)C(=O)Nc1nc2ccc(OC(F)(F)F)cc2s1 [Cpd 9, (S)-2-Amino-3-phenyl-N-(6-trifluoromethoxy-benzothiazol-2-yl)-propionamide]
Plasma Stability Human (1 hour), percent of pro-drug metabolized to riluzole [2]: 7%
Metabolic Stability mouse (30 minutes), percent of pro-drug metabolized to riluzole [4]: 2%
Metabolic Stability human (30 minutes), percent of pro-drug metabolized to riluzole [5]: 0%
Plasma Stability mouse (1 hour), percent of pro-drug metabolized to riluzole [6]: 0%

C[C@@H](N)C(=O)Nc1nc2ccc(OC(F)(F)F)cc2s1 [Cpd 2, (R)-2-Amino-N-(6-trifluoromethoxy-benzothiazol-2-yl)-propionamide]
SGF (3 hours), percent of pro-drug metabolized to riluzole [1]: 0%
Plasma Stability Human (1 hour), percent of pro-drug metabolized to riluzole [2]: 15%
SIF (3 hours), percent of pro-drug metabolized to riluzole [3]: 50%
Metabolic Stability mouse (30 minutes), percent of pro-drug metabolized to riluzole [4]: 10%
Metabolic Stability human (30 minutes), percent of pro-drug metabolized to riluzole [5]: 4%
Plasma Stability mouse (1 hour), percent of pro-drug metabolized to riluzole [6]: 36%

O=C(O)CCC(=O)Nc1nc2ccc(OC(F)(F)F)cc2s1 [Cpd 20, N-(6-Trifluoromethoxy-benzothiazol-2-yl)-succinamic acid]
SGF (3 hours), percent of pro-drug metabolized to riluzole [1]: 0%
Plasma Stability Human (1 hour), percent of pro-drug metabolized to riluzole [2]: 16%
SIF (3 hours), percent of pro-drug metabolized to riluzole [3]: 0%
Metabolic Stability mouse (30 minutes), percent of pro-drug metabolized to riluzole [4]: 70%
Metabolic Stability human (30 minutes), percent of pro-drug metabolized to riluzole [5]: 0%
Plasma Stability mouse (1 hour), percent of pro-drug metabolized to riluzole [6]: 0%

CC(C)(C)OC(=O)CCC(=O)Nc1nc2ccc(OC(F)(F)F)cc2s1 [Cpd 22, N-(6-Trifluoromethoxy-benzothiazol-2-yl)-succinamic acid tert-butyl ester]
SGF (3 hours), percent of pro-drug metabolized to riluzole [1]: 0%
Plasma Stability Human (1 hour), percent of pro-drug metabolized to riluzole [2]: 0%
SIF (3 hours), percent of pro-drug metabolized to riluzole [3]: 0%
Metabolic Stability mouse (30 minutes), percent of pro-drug metabolized to riluzole [4]: 0%
Metabolic Stability human (30 minutes), percent of pro-drug metabolized to riluzole [5]: 21%
Plasma Stability mouse (1 hour), percent of pro-drug metabolized to riluzole [6]: 0%

O=C(Cc1ccccc1[N+](=O)[O-])Nc1nc2ccc(OC(F)(F)F)cc2s1 [Cpd 27, 2-(2-Nitro-phenyl)-N-(6-trifluoromethoxy-benzothiazol-2-yl)-acetamide]
SGF (3 hours), percent of pro-drug metabolized to riluzole [1]: 0%
Plasma Stability Human (1 hour), percent of pro-drug metabolized to riluzole [2]: 13%
SIF (3 hours), percent of pro-drug metabolized to riluzole [3]: 0%
Metabolic Stability mouse (30 minutes), percent of pro-drug metabolized to riluzole [4]: 59%
Metabolic Stability human (30 minutes), percent of pro-drug metabolized to riluzole [5]: 22%
Plasma Stability mouse (1 hour), percent of pro-drug metabolized to riluzole [6]: 0%

CCCOC(=O)Nc1nc2ccc(OC(F)(F)F)cc2s1 [Cpd 14, (6-Trifluoromethoxy-benzothiazol-2-yl)-carbamic acid propyl ester]
SGF (3 hours), percent of pro-drug metabolized to riluzole [1]: 0%
Plasma Stability Human (1 hour), percent of pro-drug metabolized to riluzole [2]: 0%
SIF (3 hours), percent of pro-drug metabolized to riluzole [3]: 0%
Metabolic Stability mouse (30 minutes), percent of pro-drug metabolized to riluzole [4]: 15%
Metabolic Stability human (30 minutes), percent of pro-drug metabolized to riluzole [5]: 34%
Plasma Stability mouse (1 hour), percent of pro-drug metabolized to riluzole [6]: 0%

CC(C)COC(=O)Nc1nc2ccc(OC(F)(F)F)cc2s1 [Cpd 16, (6-Trifluoromethoxy-benzothiazol-2-yl)-carbamic acid isobutyl ester]
SGF (3 hours), percent of pro-drug metabolized to riluzole [1]: 5%
Plasma Stability Human (1 hour), percent of pro-drug metabolized to riluzole [2]: 0%
SIF (3 hours), percent of pro-drug metabolized to riluzole [3]: 0%
Metabolic Stability mouse (30 minutes), percent of pro-drug metabolized to riluzole [4]: 23%
Metabolic Stability human (30 minutes), percent of pro-drug metabolized to riluzole [5]: 14%
Plasma Stability mouse (1 hour), percent of pro-drug metabolized to riluzole [6]: 0%

NCC1(CC(=O)Nc2nc3ccc(OC(F)(F)F)cc3s2)CCCCC1 [Cpd 29, 2-(1-Aminomethyl-cyclohexyl)-N-(6-trifluoromethoxy-benzothiazol-2-yl)-acetamide]
SGF (3 hours), percent of pro-drug metabolized to riluzole [1]: 0%
SIF (3 hours), percent of pro-drug metabolized to riluzole [3]: 50%

O=C(CCC(=O)Nc1nc2ccc(OC(F)(F)F)cc2s1)NCCN1CCOCC1 [Cpd 24, N-(2-Morpholin-4-yl-ethyl)-N′-(6-trifluoromethoxy-benzothiazol-2-yl)-succinamide]
SGF (3 hours), percent of pro-drug metabolized to riluzole [1]: 0%
SIF (3 hours), percent of pro-drug metabolized to riluzole [3]: 60%

CCCCCCOC(=O)Nc1nc2ccc(OC(F)(F)F)cc2s1 [Cpd 17, (6-Trifluoromethoxy-benzothiazol-2-yl)-carbamic acid hexyl ester]
SGF (3 hours), percent of pro-drug metabolized to riluzole [1]: 0%

N[C@H](Cc1ccccc1)C(=O)Nc1nc2ccc(OC(F)(F)F)cc2s1 [Cpd 4, (R)-2-Amino-3-phenyl-N-(6-trifluoromethoxy-benzothiazol-2-yl)-propionamide]
SGF (3 hours), percent of pro-drug metabolized to riluzole [1]: 3%
Plasma Stability Human (1 hour), percent of pro-drug metabolized to riluzole [2]: 6%
SIF (3 hours), percent of pro-drug metabolized to riluzole [3]: 0%
Metabolic Stability mouse (30 minutes), percent of pro-drug metabolized to riluzole [4]: 12%
Metabolic Stability human (30 minutes), percent of pro-drug metabolized to riluzole [5]: 18%
Plasma Stability mouse (1 hour), percent of pro-drug metabolized to riluzole [6]: 47%

NCC(=O)Nc1nc2ccc(OC(F)(F)F)cc2s1 [Cpd 1, 2-Amino-N-(6-trifluoromethoxy-benzothiazol-2-yl)-acetamide]
Plasma Stability Human (1 hour), percent of pro-drug metabolized to riluzole [2]: 3%
Metabolic Stability mouse (30 minutes), percent of pro-drug metabolized to riluzole [4]: 4%
Metabolic Stability human (30 minutes), percent of pro-drug metabolized to riluzole [5]: 7%
Plasma Stability mouse (1 hour), percent of pro-drug metabolized to riluzole [6]: 11%

N[C@H](COCc1ccccc1)C(=O)Nc1nc2ccc(OC(F)(F)F)cc2s1 [Cpd 5, (R)-2-Amino-3-benzyloxy-N-(6-trifluoromethoxy-benzothiazol-2-yl)-propionamide]
Plasma Stability Human (1 hour), percent of pro-drug metabolized to riluzole [2]: 3%
Metabolic Stability mouse (30 minutes), percent of pro-drug metabolized to riluzole [4]: 24%
Metabolic Stability human (30 minutes), percent of pro-drug metabolized to riluzole [5]: 0%
Plasma Stability mouse (1 hour), percent of pro-drug metabolized to riluzole [6]: 25%
